Data on six compounds can be found in paper PMC6045489 (ACS Omega, 2018).

For orientation: IC50 means the point on the concentration scale where inhibition reaches its midpoint.

For test [1], the system named is HeLa cervical cancer cell line. Nature of the test: Sulforhodamine B antiproliferative assay, HeLa. It counts as cell-based. The note with it: Homo sapiens, read-out: IC50 HeLa, mean ± SEM. In general terms: Sulforhodamine B stains cellular protein and so reports cell mass.
Test [2] concerns DU-145 prostate cancer cell line. Nature of the test: Sulforhodamine B antiproliferative assay, DU-145. It counts as cell-based. The note with it: Homo sapiens, DU-145, read-out: IC50 DU-145, mean ± SEM.
The test system of test [3] is A549 lung cancer cell line. Nature of the test: Sulforhodamine B antiproliferative assay, A549. It counts as cell-based. The note with it: Homo sapiens, A549, read-out: IC50 A549, mean ± SEM.
The subject of test [4] is HEK-293 primary human embryonic kidney cell line. As to the kind of experiment: Sulforhodamine B assay, control cell line HEK-293. The note with it: HEK293, read-out: IC50 HEK-293, mean ± SEM, normal control cells. It counts as cell-based.
Test [5] concerns MDA-MB-231 human breast adenocarcinoma cell line. As to the kind of experiment: Sulforhodamine B antiproliferative assay, MDA-MB-231. Type of test: cell-based. The note with it: MDA-MB-231, read-out: IC50 MDA-MB-231, mean ± SEM.
The next test deals with DU-145 cells. As to the kind of experiment: Immunoblot of apoptotic proteins. The note with it: DU-145, immunoblot, vs vehicle control. It counts as cell-based, human. (A western blot detects proteins with antibodies after separation by electrophoresis.)
The test system of another test is HeLa cells. The note with it: read-out: IC50 HeLa (reported literature value); cited from earlier work.

Turning to `C#CCCCC[C@H](C)C[C@@H](C)C(=O)N1C(=O)OC[C@H]1Cc1ccccc1` [Compound 17, (R)-4-Benzyl-3-((2R,4S)-2,4-dimethyldec-9-ynoyl)oxazolidin-2-one], the IC50 in test [1] came to 160 ± 10 µM; in test [2] it was 188 ± 29 µM; in test [3], 158 ± 15 µM; in test [4] it was 293 ± 16 µM; in test [5], 102 ± 14 µM.
Turning to `COc1cccc2c1C(=O)c1c(O)c3c(c(O)c1C2=O)C[C@@](O)(C(=O)CO)C[C@@H]3O[C@H]1C[C@H](N)[C@H](O)[C@H](C)O1` [doxorubicin, reference compound], the “Annexin V protein expression” value with DU-145 cells is reported as “highly expressed”. In the test on DU-145 cells, the BAX protein expression entry is on record as “highly expressed”. Further, the IC50 is 0.5 ± 0.2 µM in test [2], 1 ± 0.1 µM in test [3], 39 ± 2 µM in test [4] and 1 ± 0.1 µM in test [5].
As to `CC(=O)[C@@H]1CCCN1C(=O)[C@@H]1CCCN1C(=O)OC(C)(C)C` [Compound 21, tert-Butyl(S)-2-((S)-2-acetylpyrrolidine-1-carbonyl)pyrrolidine-1-carboxylate], the IC50 was 5 ± 1 µM in test [1]; 1 ± 0.9 µM in test [2]; 5 ± 0.4 µM in test [3]; 5440 ± 245 µM in test [4]; 3 ± 0.1 µM in test [5].
With `CC(O)[C@@H]1CCCN1C(=O)[C@@H]1CCCN1C(=O)OC(C)(C)C` (mixture of isomers) [Compound 22, (2S)-tert-Butyl 2-((2S)-2-(1-Hydroxyethyl)pyrrolidine-1-carbonyl)pyrrolidine-1-carboxylate], the 50% inhibitory concentration (IC50) in test [1] was determined as 26 ± 3 µM; in test [2] it was 2 ± 0.8 µM; in test [3] it was 0.5 ± 0.03 µM; in test [4], 3390 ± 123 µM; in test [5], 8 ± 0.4 µM.
Turning to jahanyne, the IC50 in the test with HeLa cells is 1.8 µM.
Consider `C#CCCCC[C@H](C)C[C@@H](C)C(=O)O` [Compound 2, (2R,4S)-2,4-Dimethyldec-9-ynoic Acid], for which the IC50 in test [1] is 122 ± 14 µM; in test [2], 123 ± 20 µM; in test [3], 167 ± 12 µM; in test [4] it was 259 ± 35 µM; in test [5], 164 ± 20 µM.
